Data: patent US9238036B2, “Pharmaceutical uses of lanosta-8,24-dien-3-ols” (priority 2008, dated 2016)

Key:
Type in all cases: in vivo
mice [1] = test: Persistent inflammatory nociception induced by CFA, Von Frey filament; details: FIGS. 4A; for mechanical hypernociception induced by CFA, acute treatment: euphol 30 mg/kg or gabapentin 70 mg/kg oral, 1 h before CFA, 0.6 g Von Frey, 4B
Protocol: (§1) In all examples that follow, 20-30 g male mice were kept in filtered-air ventilated cages, with controlled temperature (22±2° C.) and humidity (50-60%), 12 h light/12 h dark cycles, with free access to water and food. The animals remained in the lab for an adaptation period of at least 1 hour before the pharmacological tests, held between 8:00 and 17:00 h.
(§2) The animals' nociceptive mechanical threshold was evaluated as the response frequency of paw withdrawal after ten applications of a Von Frey filament (VHF, Stoelting, Chicago, USA). The animals were individually placed in 9×7×11 cm transparent acrylic compartments over an elevated wire mesh platform, to allow access to the paw plantar surfaces. The Von Frey filament was applied to the right hind paw, watching the criteria of (1) application perpendicular to the plantar surface with enough pressure to bend the filament, so as to ensure total pressure; (2) the animals were evaluated when all four paws were accommodated on the wire mesh; (3) a paw withdrawal response was considered when the animal removed the paw entirely from the wire mesh; (4) each animal was stimulated 10 consecutive times, with 1 second duration each stimulation; (5) each paw withdrawal was considered as 10% of a response, with 10 withdrawals corresponding to 100% response. […]
Animals were treated orally with 30 mg/kg euphol or 70 mg/kg gabapentin (positive control), 1 hour before the CFA injection. The mechanical hypernociception was measured through stimulation with a 0.6 g Von Frey filament in time intervals of 1, 2, 4, 6, 8, 24 and 48 hours after CFA injection, and up to the re-establishment of the nociceptive response. […] For that, animals received daily 30 mg/kg euphol, orally, for 5 days, and hypernociception was evaluated once a day, 4 hours after the first administration. Mechanical hypernociception was evaluated until the return of the painful response. […]

mice [2] = test: Neuropathic pain induced by partial constriction of the sciatic nerve, Von Frey filament; details: FIGS. 5A; for mechanical nociceptive response induced by partial constriction of the sciatic nerve, acute treatment: euphol 30 mg/kg or gabapentin 70 mg/kg oral on 4th post-operatory day, 5B; for mechanical hypernociception induced by partial constriction of the sciatic nerve, prolonged treatment: once a day for 5 days from the 6th day, 5C
Protocol: as §1
The animals' nociceptive mechanical threshold was evaluated as the response frequency of paw withdrawal after ten applications of a Von Frey filament (VHF, Stoelting, Chicago, USA). The animals were individually placed in 9×7×11 cm transparent acrylic compartments over an elevated wire mesh platform, to allow access to the paw plantar surfaces. The Von Frey filament was applied to the right hind paw, watching the criteria of (1) application perpendicular to the plantar surface with enough pressure to bend the filament, so as to ensure total pressure; (2) the animals were evaluated when all four paws were accommodated on the wire mesh; (3) a paw withdrawal response was considered when the animal removed the paw entirely from the wire mesh; (4) each animal was stimulated 10 consecutive times, with 1 second duration each stimulation; (5) each paw withdrawal was considered as 10% of a response, with 10 withdrawals corresponding to 100% response.
The procedure here employed was similar to the one described for rats (Pain, 43:205-218, 1990), modified for mice ((Pain, 76:215-222, 1998), and standardized by Bortolanza et al (Eur J Pharmacol., 453:203-208, 2002). The mice were anesthetized with 7% chloral hydrate (0.6% ml/kg […]). Then the sciatic nerve was exposed on top of the thigh about the sciatic trifurcation, and ⅓-½ of the dorsal portion was tied with a suture filament no. 8. In the false-operated group, the sciatic nerve was exposed without the tying. On the 4th post-operatory day, a group of animals was treated orally with 30 mg/kg euphol, and another group treated orally with 70 mg/kg gabapentin, as a positive control. In predetermined times after the treatment (1, 2, 4, 6, 8, 24 and 48 hours) the mechanical threshold was evaluated, through stimulation with a 0.6 Von Frey filament. To assess the effect of the prolonged treatment, the animals were daily administered euphol, from the 6th day, for 5 days and the mechanical hypernociception was evaluated once a day, 4 h after the first administration, until the return of the nociceptive response similar to the control group. After that, the prolonged treatment protocol was repeated to evaluate a possible development of tolerance to the compound.

PKC = PKC activity on the skin of mice, ELISA; details: topical, FIG. 2
Protocol: as §1
This was an evaluation of the effect of the compounds of the invention upon the PKC activity, on the skin of mice. The animals received the following 100 μg/ear compositions: • a positive control, namely TPA (tetradecanoylphorbol-13-acetate), 2.5 μg/ear, in a vehicle comprising a 3:1 mixture of acetone:ethanol. • a negative control, namely the vehicle, which is a 3:1 mixture of acetone:ethanol; • A mixture of 100 μg euphol and 2.5 μg TPA, per ear, in a vehicle comprising a 3:1 mixture of acetone:ethanol.
5-member groups of mice were topically applied, in the inner surface of the ears, the compositions above. The PKC activity, before and after exposure to the tested compositions, was measured using ELISA (enzyme-linked immuno sorbent assay).

mice [3] = test: Inflammatory nociception induced by carragenan, Von Frey filament; details: acute; euphol 30 μg/kg oral 1 h before, dexamethasone 0.5 mg/kg s.c. 4 h before carragenan 300 μg/paw; 0.6 g Von Frey; FIGS. 3A, 3B
Protocol: as §1
as §2, with “The animals were individually placed in 9×7×11 cm transparent acrylic compartments over an elevated wire mesh platform, to allow access to the paw plantar surfaces.” left out
The animals were treated orally with euphol (30 μg/kg) one hour before the carragenan injection. […] Hypernociception was evaluated hourly during 8 hours with a 0.6 g Von Frey filament, as well as after 24 and 48 hours after carragenan injection.

mice ears = test: Ear thickness after topical TPA (irritating effect / inflammation), mice ears; details: euphol 100 μg/ear with TPA 2.5 μg/ear, acetone:ethanol 3:1, FIG. 1
Protocol: as §1
A characterization of the irritating effect of certain chemical compounds was effected, by comparing the results of treating mice ears topically with: • a positive control, namely TPA (tetradecanoylphorbol-13-acetate), 2.5 μg/ear, in a vehicle comprising a 3:1 mixture of acetone:ethanol. • a negative control, namely the vehicle, which is a 3:1 mixture of acetone:ethanol; • Euphol, 100 μg/ear, a compound of the invention, in a vehicle comprising a 3:1 mixture of acetone:ethanol; • A mixture of 100 μg of euphol and 2.5 μg TPA, per ear, in a vehicle comprising a 3:1 mixture of acetone:ethanol.
5-member groups of mice were topically applied, in the inner surface of the ears, the compositions above. The thickness of the ears, before and after exposure to the tested compositions, was measured using a digital micrometer, and the responses were expressed as mμ.

| Compound | mechanical hypernociception induced by CFA, acute treatment (mice [1]) | mechanical nociceptive response induced by partial constriction of the sciatic nerve, acute treatment (mice [2]) | mechanical hypernociception induced by partial constriction of the sciatic nerve, prolonged treatment (mice [2]) | nociceptive response caused by CFA, prolonged treatment (mice [1]; once a day for 5 days, euphol 30 mg/kg oral, 4C) | PKC activity increase induced by TPA (ELISA absorbance) (PKC; 100 μg euphol + 2.5 μg TPA per ear) | inflammatory mechanical hypernociception induced by carragenan (frequency of response, AUC) (mice [3]) | inhibitory effect on ear thickness increase (inflammation) (mice ears) | PKC activity (ELISA absorbance) vs vehicle group (PKC; TPA 2.5 μg/ear) |
| --- | --- | --- | --- | --- | --- | --- | --- | --- |
| NCC1(CC(=O)O)CCCCC1 [gabapentin, reference compound] | close to the effect obtained with gabapentin | inhibited in a significant manner | reduced in a significant manner | – | – | – | – | – |
| CC(C)=CCC[C@@H](C)[C@@H]1CC[C@]2(C)C3=C(CC[C@@]12C)[C@@]1(C)CC[C@H](O)C(C)(C)[C@@H]1CC3 [euphol] | reduced significantly | inhibited in a significant manner | reduced in a significant manner | inhibition of the nociceptive response caused by CFA during the 6 following days of treatment | significantly reduces the increase in PKC activity induced by TPA | significantly reduced | significant even up to 24 hours after the treatment | – |
| CCCCCCCCCCCCCC(=O)O[C@@H]1[C@@H](C)[C@@]2(O)[C@@H](C=C(CO)C[C@]3(O)C(=O)C(C)=C[C@@H]23)[C@@H]2C(C)(C)[C@]12OC(C)=O [TPA, tetradecanoylphorbol-13-acetate, reference compound] | – | – | – | – | – | – | – | significant increase in the PKC activity |
